From the NIST ThermoML archive (doi:10.1021/je900311v)

Assays:
[1] = 298.15 K; 101.33 kPa; Liquid
[2] = excess molar enthalpy (molar enthalpy of mixing); xn = mol fraction of the nth substance listed; details: 298.15 K, 101 kPa, Liquid, Calvet calorimetry

CCCCCCC(C)=O [2-octanone]
Details | mass density [kg/m3]
[1] | 814.28

CCCCCCC(C)=O [2-octanone] + CCCCCCCCCCCC
[2]
Details | excess molar enthalpy [kcal/mol]
x1 = 0.035 | 0.0456
x1 = 0.0677 | 0.0821
x1 = 0.0982 | 0.111
x1 = 0.1267 | 0.136
x1 = 0.1564 | 0.159
x1 = 0.1841 | 0.177
x1 = 0.2101 | 0.193
x1 = 0.2345 | 0.205
x1 = 0.2613 | 0.217
x1 = 0.2862 | 0.226
x1 = 0.3096 | 0.234
x1 = 0.3314 | 0.24
x1 = 0.3519 | 0.245
x1 = 0.3712 | 0.248
x1 = 0.3931 | 0.252
x1 = 0.4135 | 0.254
x1 = 0.4325 | 0.255
x1 = 0.4499 | 0.255
x1 = 0.4504 | 0.256
x1 = 0.4596 | 0.256
x1 = 0.4698 | 0.256
x1 = 0.4804 | 0.256
x1 = 0.4915 | 0.256
x1 = 0.5031 | 0.255
x1 = 0.5138 | 0.255
x1 = 0.525 | 0.253
x1 = 0.5366 | 0.252
x1 = 0.5488 | 0.251
x1 = 0.5615 | 0.249
x1 = 0.5749 | 0.246
x1 = 0.5866 | 0.244
x1 = 0.5986 | 0.241
x1 = 0.6133 | 0.238
x1 = 0.6244 | 0.235
x1 = 0.6381 | 0.231
x1 = 0.6525 | 0.227
x1 = 0.6658 | 0.222
x1 = 0.6795 | 0.217
x1 = 0.6938 | 0.212
x1 = 0.7072 | 0.206
x1 = 0.721 | 0.2
x1 = 0.7355 | 0.193
x1 = 0.7505 | 0.186
x1 = 0.7661 | 0.177
x1 = 0.7808 | 0.17
x1 = 0.7961 | 0.161
x1 = 0.812 | 0.151
x1 = 0.8265 | 0.142
x1 = 0.8414 | 0.133
x1 = 0.857 | 0.122
x1 = 0.873 | 0.11
x1 = 0.8877 | 0.0994
x1 = 0.9032 | 0.0876
x1 = 0.9191 | 0.0745
x1 = 0.9356 | 0.0608
x1 = 0.9509 | 0.047
x1 = 0.9667 | 0.0326
x1 = 0.9831 | 0.0167
